Assay results: US6517812B1, “Inhibition of psychostimulant-induced and nicotine-induced craving” (The General Hospital Corporation, priority 1997, dated 2003)

Key:
D1 receptor [1] = target: T1, D1 receptor (Rattus norvegicus, UniProt P18901); assay: SCH-23390 pretreatment before cocaine, CBV-weighted fMRI in rat; type: in vivo; conditions: post 0.5 mg/kg cocaine
T1 construct: Male Harlan Sprague-Dawley rats (225-300 gm) were anesthetized briefly; from tissue; host or cells: brain of living male Sprague-Dawley rats (in vivo)

D1 receptor [2] = target: T1, D1 receptor; assay: SCH-23390 pretreatment before cocaine, LDF of frontal cortex CBF in rat; type: in vivo; conditions: 0.5 mg/kg cocaine after SCH-23390 pretreatment, n=3, p<0.04
Procedure: All procedures were carried out in accordance with NIH guidelines. Male Harlan Sprague-Dawley rats (225-300 gm) were anesthetized briefly with 1.5% halothane in oxygen for insertion of left femoral arterial and venous cannulae and placement of tracheostomy for mechanical ventilation (using a 16 gauge intravenous catheter, Inste-W, Becton Dickinson, Sandy, Utah). All wounds were infiltrated with 1% lidocaine before incision. Following surgery, the inspired halothane concentration was reduced to 0.7% and rats were paralyzed with 2 mg/kg intravenous pancuronium, followed by a continuous intravenous infusion of pancuronium at 2 mg/kg/hr. Pancuronium was dissolved in normal saline administered at 5 ml/kg/hr. […] Arterial blood samples (150 μl) withdrawn from cannula were analyzed for arterial partial pressures of oxygen, carbon dioxide, and pH (Ciba-Coming Model 1304) before administration of drugs, and at the end of each experiment before sacrifice, to ensure animal stability. Arterial blood pressure and rectal temperature were monitored throughout the experiment. […]
(§1) Regional cortical blood flow was determined by LDF (Perimed, PF2B, Stockholm, Sweden) as described previously (Ayata, et al., 1996, J. Cereb. Blood Flow Metab., 16:539-541). […] All data were collected, stored, and analyzed using MacLab/8 data acquisition and analysis system (ADInstruments, Mountain View, Calif.). […]

[3] = literature (Schindler 1992, Hemby 1994); cited from earlier work
rat frontal cortex = assay: Laser Doppler-flowmetry (LDF) of regional cortical blood flow (CBF) in rat; type: in vivo; conditions: rat, bolus infusion 1, 5, 10 and 20 mg/kg (data not shown)
Procedure: (§2) All procedures were carried out in accordance with NIH guidelines. Male Harlan Sprague-Dawley rats (225-300 gm) were anesthetized briefly with 1.5% halothane in oxygen for insertion of left femoral arterial and venous cannulae and placement of tracheostomy for mechanical ventilation (using a 16 gauge intravenous catheter, Inste-W, Becton Dickinson, Sandy, Utah). All wounds were infiltrated with 1% lidocaine before incision. Following surgery, the inspired halothane concentration was reduced to 0.7% and rats were paralyzed with 2 mg/kg intravenous pancuronium, followed by a continuous intravenous infusion of pancuronium at 2 mg/kg/hr. Pancuronium was dissolved in normal saline administered at 5 ml/kg/hr. Rats were mechanically ventilated (in a small animal volume controlled ventilator, Harvard Apparatus, Inc., South Natick, Mass.) with a 80/20 air/oxygen mixture, an inspiratory to expiratory ratio of 1:1, and an initial tidal volume of 3.0 ml at a rate of 40 breaths per minute. Ventilation parameters were adjusted to maintain normal arterial blood gases (pH=7.40±0.01, PaCO2=40±2, PaO2=145±10). Arterial blood samples (150 μl) withdrawn from cannula were analyzed for arterial partial pressures of oxygen, carbon dioxide, and pH (Ciba-Coming Model 1304) before administration of drugs, and at the end of each experiment before sacrifice, to ensure animal stability. Arterial blood pressure and rectal temperature were monitored throughout the experiment. […] Rats torsos were wrapped in two heating blankets (Gaymar, Orchid Park, N.Y.) circulating warm water to maintain core temperature at 37-38° C. To minimize MRI motion artifact, rats were placed into a custom plastic cradle attached to a head frame machined from delrin plastic (David Kopf Instruments, Fremont, Calif.); heads were fixed with plastic screws inserted into the ear canals and a bar inserted under the front incisors. Rat heads were shaved and covered with gel toothpaste to reduce magnetic susceptibility artifacts arising from air-tissue interfaces; ear canals and oropharynx were also filled with toothpaste. A surface coil was secured over the dorsal surface of the head before positioning the animal in the magnet center. Cocaine (RBI, Natick, Mass.), SCH-23390 (RBI, Natick, Mass.), and cocaine methiodide (NIDA, Bethesda, Md.) were dissolved in normal saline and administered in a 0.5 ml volume at a rate of 1 ml/min via the femoral vein. Sixty minutes passed before injections of cocaine were repeated.
Regional cortical blood flow was determined by LDF (Perimed, PF2B, Stockholm, Sweden) as described previously (Ayata, et al., 1996, J. Cereb. Blood Flow Metab., 16:539-541). Rats (n=8) were prepared exactly as for dynamic MR studies and positioned in a standard stereotaxic head frame. With the scalp incised and retracted, two holes (1-2 mm in diameter) were drilled through the skull 2 mm lateral to midline; one hole was 2 mm anterior to bregma overlying frontal cortex, and the other was 8 mm posterior to bregma to examine occipital cortex. The flow probe was positioned directly upon exposed dura mater in a puddle of mineral oil. […] All data were collected, stored, and analyzed using MacLab/8 data acquisition and analysis system (ADInstruments, Mountain View, Calif.). Arterial pressure was continuously monitored and the data stored; heart rate was calculated from arterial pressure pulses by the data acquisition software. […]

[4] = system: Male Harlan Sprague-Dawley rats; assay: Arterial blood pressure and heart rate monitoring in rat; conditions: bolus infusion 1, 5, 10 and 20 mg/kg
Procedure: as §2, with “To minimize MRI motion artifact, rats were placed into a custom plastic cradle attached to a head frame machined from delrin plastic (David Kopf Instruments, Fremont, Calif.); heads were fixed with plastic screws inserted into the ear canals and a bar inserted under the front incisors. Rat heads were shaved and covered with gel toothpaste to reduce magnetic susceptibility artifacts arising from air-tissue interfaces; ear canals and oropharynx were also filled with toothpaste. A surface coil was secured over the dorsal surface of the head before positioning the animal in the magnet center. Cocaine (RBI, Natick, Mass.), SCH-23390 (RBI, Natick, Mass.), and cocaine methiodide (NIDA, Bethesda, Md.) were dissolved in normal saline and administered in a 0.5 ml volume at a rate of 1 ml/min via the femoral vein. Sixty minutes passed before injections of cocaine were repeated.” left out
as §1, with “Calif.). Arterial pressure was continuously monitored and the data stored; heart rate was calculated from arterial pressure pulses by the data acquisition software.” for “Calif.).”

T1 sequence (P18901 whole entry): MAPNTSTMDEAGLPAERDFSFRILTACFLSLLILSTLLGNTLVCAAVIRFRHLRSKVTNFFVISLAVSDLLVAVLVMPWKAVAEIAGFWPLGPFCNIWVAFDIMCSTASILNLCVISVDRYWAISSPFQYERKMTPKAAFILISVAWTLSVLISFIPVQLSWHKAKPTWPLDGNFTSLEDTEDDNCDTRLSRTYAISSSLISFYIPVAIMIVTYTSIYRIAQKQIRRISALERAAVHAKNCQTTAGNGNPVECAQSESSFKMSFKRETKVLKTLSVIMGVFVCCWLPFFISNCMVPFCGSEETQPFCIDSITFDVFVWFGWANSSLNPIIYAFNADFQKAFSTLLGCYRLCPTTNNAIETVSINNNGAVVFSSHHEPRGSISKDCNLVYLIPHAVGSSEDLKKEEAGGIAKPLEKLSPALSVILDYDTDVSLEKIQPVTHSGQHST

## CN1CCc2cc(Cl)c(O)cc2[C@@H](c2ccccc2)C1 [SCH-23390]
D1 receptor [1]
  drop in CBV at nadir, frontal neocortex: 5%
  drop in CBV at nadir, striatum: 8%
D1 receptor [2]
  change in CBF relative to pre-drug baseline: −18±3%

## COC(=O)[C@H]1[C@@H](OC(=O)c2ccccc2)C[C@@H]2CC[C@H]1[N+]2(C)C.[I-] [cocaine methiodide]
[3]
  blood brain barrier passage: does not cross the blood brain barrier
Rat frontal cortex
  change in frontal cortex CBF: did not produce any significant change
[4]
  blood pressure and heart rate: transient decrease
